Results from patent US20140329766A1, “Prophylactic Compositions for Management of Microbial Infections in Patients with Brain Injury” (UTI LIMITED PARTNERSHIP, priority 2011, published 2014).
“Also recorded” adds a separate entry of the source.

Experiments:
[1] = Lung injury assessment (MPO activity, lung edema); format: in vivo; conditions: post-ischemic mice 24 h after MCAO
Method: The lungs of anaesthetized mice were removed after specified period of reperfusion. For determination of lung myeloperoxidase (MPO) activity (an indicator of lung inflammation), samples of lungs were removed, weighed, immediately frozen in liquid nitrogen and stored at −80° C. until the MPO activity assay was performed. Myeloperoxidase activity was measured using an assay previously described (Krawisz et al., 1984) and modified to be used in a 96-well microtitre plate. Values are expressed as units of MPO activity per milligram of lung tissue (U/mg tissue). For determination of lung fluid content, the left lobes were dissected gently dried using a blotting paper, and weighed. The tissues were dried at 55° C. for 72 h and reweighed. The percentage of lung weight attributed to fluid was calculated as an indicator of lung edema formation.
The lung tissues were removed at 24 h post-MCAO and assessed for: (i) myeloperoxidase activity as a measure of neutrophil infiltration, and (ii) for lung edema.

post-stroke infections = experiment: Bacteriological analysis (CFU) of blood, lungs, liver and spleen after MCAO; format: in vivo, mice; conditions: post-ischemic mice 24 h after MCAO; α-GalCer 2 μg/mouse i.v. 2 h after MCAO (FIGS. 44A-44D)
Method: Mice underwent the mid-cerebral artery occlusion (MCAO) model of cerebral ischemia-reperfusion injury as previously described (Connolly, Jr. et al., 1996; Wong et al., 2008). Male mice of 8-12 weeks old were anesthetized by intraperitoneal injection of a mixture of 10 mg/kg xylazine hydrochloride (MTC Pharmaceuticals, Cambridge, ON) and 200 mg/kg ketamine hydrochloride (Rogar/STB, London, ON). Body temperature was maintained at 37° C. using a heating pad and temperature regulator with rectal probe. Mice were randomly divided into 2 groups: (i) sham-operated, and (ii) MCAO-operated. All surgical instruments were sterilized before the surgery. Before any incision, the area was swabbed with ethanol. To induce MCAO, a 10-mm incision was made on the right-hand side of the neck. Then, the common carotid artery, external carotid artery, and internal carotid artery were dissected free. The external carotid artery was further dissected distally, then coagulated and cut to serve as a stump. After applying temporary clamps at the common carotid artery and internal carotid artery, a monofilament with a silicon coating diameter of 0.21-0.23 mm (Doccol Corporation, Redlands, Calif., USA) was inserted into the stump of the external carotid artery. The monofilament then advanced a defined distance (12 mm) so that the distal end of the monofilament came to rest across the origin of the MCA. The stump of external carotid artery was tied off. The wound on the neck of the mouse was sutured and the mouse was then transferred onto a heat pad to maintain its body temperature at 37° C. After 30 mins of occlusion, the monofilament was withdrawn to allow reperfusion to occur. The animal then recovered from the anaesthesia. Rehydration of the mice was performed every 4 h with a subcutaneous injection of electrolytes and glucose. Food pellets softened with water were placed in the cage after surgery as the mice recovered, and access to water was provided. Sham-operated animals were subjected to the initial anaesthetic and neck incision only. The animals were then allowed to recover from anaesthetic. All animals were put onto a 37° C. heat pad, post-surgery, to recover from anaesthesia until euthanized.
(§1) The anaesthetized mice from Example 1 were washed with 70% ethanol under sterile conditions. Blood was collected by cardiac puncture. The lungs, liver and spleen were removed after thoracotomy and homogenized. For determination of colony forming units (CFU), 10 μl of tissue homogenate or blood was serially diluted, plated onto brain heart infusion (BHI) agar plates supplemented with 5% sheep blood (Daylnn Biologicals, Alberta, Canada), incubated at 37° C. for 18 h, and bacterial colonies were counted.
as §1, with “Example 7” for “Example 1”

CCCCCCCCCCCCCCCCCCCCCCCCCCC(=O)N[C@@H](COC1OC(CO)C(O)C(O)C1O)[C@H](O)[C@H](O)CCCCCCCCCCCCCC (stereo partly drawn) [α-GalCer, α-galactosylceramide]
stroke-induced neutrophil pulmonary influx (MPO activity in lung) ([1]; 2 μg/mouse i.v. 2 h after MCAO (FIG. 43B)): reduced
lung edema ([1]; 2 μg/mouse i.v. 2 h after MCAO (FIG. 43C)): reduced
infections (bacterial loads in peripheral blood, lungs, livers, spleens) (post-stroke infections): reduced; also recorded: suppressed the occurrence of microbial infections
